Patent US8008346B2, “Chemotherapeutic agents for inhibition of protein translation” (The Royal University for the Advancement of Learning/McGill …, priority 2006, dated 2011)

Key:
eIF4AIf [1] = target: T1, eIF4AIf (Mus musculus, UniProt P60843); assay: Crosslinking of oxidized 32P-cap labeled CAT mRNA to recombinant eIF4AIf (RNA binding); design: species or system murine; conditions: 50 μM
T1 construct: inferred only from the Ni-NTA purification; made in house; host or cells: Escherichia coli BL21 (DE3) codon+
T1 sequence (P60843 whole entry): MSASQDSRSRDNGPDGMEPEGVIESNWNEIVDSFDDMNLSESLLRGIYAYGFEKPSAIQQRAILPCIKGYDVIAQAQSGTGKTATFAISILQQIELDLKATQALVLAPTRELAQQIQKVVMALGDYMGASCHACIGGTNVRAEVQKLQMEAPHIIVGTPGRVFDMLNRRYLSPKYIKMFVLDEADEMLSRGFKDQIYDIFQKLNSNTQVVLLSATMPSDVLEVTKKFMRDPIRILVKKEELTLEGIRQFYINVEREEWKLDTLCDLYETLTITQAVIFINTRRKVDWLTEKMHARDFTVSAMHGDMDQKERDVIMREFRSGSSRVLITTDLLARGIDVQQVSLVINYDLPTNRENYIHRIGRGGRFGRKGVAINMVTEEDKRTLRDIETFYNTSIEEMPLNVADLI
Description: (§1) FIG. 7. Effects of hippuristanol on ATP hydrolysis, ATP binding, and RNA binding activities of eIF4A. A. Hippuristanol inhibits eIF4AIf RNA-dependent ATPase activity. The rate of ATP hydrolysis as a function of hippuristanol concentration is plotted relative to the rate obtained in the presence of vehicle (0.5% DMSO). ATP hydrolysis was measured in the presence of 2.5 μM poly (U) and monitored by thin layer chromatography. […] Samples were resolved by SDS-PAGE and subjected to autoradiography. C. The RNA binding activity of eIF4AIf is inhibited by hippuristanol. Oxidized ^32P-cap labeled CAT mRNA was incubated with recombinant eIF4AIf in the absence (lane 2) or presence of ATP (lanes 1, 3-6), 0.6 mM m^7GDP (lane 3), 0.6 mM GDP (lane 4), or 50 μM hippuristanol (lane 6). Following treatment with RNase A, samples were resolved by SDS-PAGE and subjected to autoradiography. The asterisk denotes the position of migration of a ˜30 kDa contaminant in the recombinant eIF4AIf preparation used as an internal loading reference. D. The RNA binding activity of eIF4Ac is inhibited by hippuristanol. Oxidized ^32P-cap labeled CAT mRNA was incubated with 0.7 μg of native eIF4F in the absence (lane 1) or presence (lane 2) of 50 μM hippuristanol. […]
Ribosome Binding and mRNA Crosslinking. […] Fractions of 500 μl were collected and radioactivity was determined by scintillation counting. […]

eIF4AIf [2] = target: T1, eIF4AIf; assay: RNA-dependent ATPase assay with recombinant eIF4AIf; format: biochemical, murine; conditions: 2.5 μM poly (U); relative to vehicle (0.5% DMSO)
Description: as §1
Recombinant eIF4AI Purification and Assays. […] Quantifications were performed on a Fujix BAS2000 phosphoimager with a Fuji imaging screen. […]

## C[C@H]1C[C@@]2(O[C@H]3C[C@H]4[C@@H]5CC[C@H]6C[C@H](O)CC[C@]6(C)[C@H]5[C@@H](O)C[C@]4(C)[C@H]3[C@@]2(C)O)OC1(C)C [Hippuristanol, hippuristanol]
eIF4AIf [1]
  RNA binding activity of eIF4AIf: inhibited
eIF4AIf [2]
  eIF4AIf RNA-dependent ATPase activity: inhibits
